Results from patent US20170021023A1 (RESDEVCO RESEARCH AND DEVELOPMENT CO. LTD., priority 2005, published 2017).

What was measured:
[1] = tested on: dry eye patients; experiment: Fluorescein Break Up Time (BUT) study in dry eye patients; assay type: in vivo, human; conditions: concentration of 0.002%
Excerpt: The advantages resulting from the addition of a surface active agent include a decrease in the surface tension of the aqueous solution, thereby increasing the spread. […] It is accepted that a BUT of 10 sec. or less indicates dry eye syndrome; see Example 11 below.

[2] = tested on: epithelial conical cells; experiment: Rabbit eye drop treatment for 3 months, electron microscopy of epithelial cells; assay type: in vivo, rabbits; conditions: preservatives such as benzalkonium chloride, cetrimonium bromide, sodium ethylene diamine tetraacetate
Description: 3 rabbits were treated for 3 months twice daily with eye drops, adjusted to pH 7.0. The average cross section of the epithelial conical cells and the percentage of damaged cells were evaluated by electron microscopy.

| Molecule | Effect on diminished Break Up Time (BUT) [1] | Effect on conical cell damage caused by preservatives [2] |
| --- | --- | --- |
| polysorbate 80 | increases the diminished Break Up Time (BUT) |  |
| OCC(O)CO [glycerol] |  | counteracts conical cell damage |
